What was measured:
[1] = test system: TSST-1; type: cell-based, Staphylococcus aureus; details: 24 hours at 35° C.
[2] = test system: S. aureus MN8; type: cell-based, Staphylococcus aureus; details: 24 hours at 35° C.

## CCCCCCCCCCCCOCCOCCOCCOCCO [Laureth-4]
[1]
  TSST-1: 531.8 ng/mL
[2]
  Final [S. aureus] (× 10^9 CFU/ml): 4.57 × 10^9 CFU/ml

## CCCCCCCCCCCCCCCCCCOCCOCCO [Steareth-2]
[1]
  TSST-1: 680.7 ng/mL
[2]
  Final [S. aureus] (× 10^9 CFU/ml): 5.76 × 10^9 CFU/ml

## PPG-5 Laureth-5
[1]
  TSST-1: 609.2 ng/mL
[2]
  Final [S. aureus] (× 10^9 CFU/ml): 3.82 × 10^9 CFU/ml
